Measured values as given in US6448450B1, “1-(3,5-dimethoxyphenyl)-2-(4-hydroxyphenyl)-ethylene for diabetes treatment” (Calyx Therapeutics, Inc., priority 1998, dated 2002).

Columns and labels:
[1] = test system: STZ induced diabetic rats; set-up: blood glucose BEFORE / blood glucose AFTER: unit not given here; settings: Pter. 20 mg/kg, metformin 30 mg/kg, cited from earlier work; for blood glucose AFTER: after treatment; for blood glucose BEFORE: before treatment
[2] = test system: spontaneously diabetic (db/db) mice; test: Blood glucose in spontaneously diabetic (db/db) mice; format: in vivo; settings: 20 mg/kg/bw/ip in propyleneglycol, within 24 hours
Experimental: Six spontaneously diabetic (db/db) mice were divided into two groups of three each. One test group receives the diphenylethylene (20 mg/kg/bw/ip) in propyleneglycol. The control group received an equal volume of propyleneglycol. Soon after the administration of the test materials, blood glucose levels were monitored at 1 hour (see FIG. 2A) and 24 hours (see FIG. 2B) after treatment. The diphenylethylene reduced the blood glucose level by over 50 percent within 24 hours, thus establishing its antihyperglycemic effect.

[3] = test system: STZ induced diabetic rats; test: Effect on streptozotocin-induced diabetic rats, comparison with metformin; format: in vivo; settings: 20 mg/kg vs metformin 30 mg/kg
Experimental: (§1) Streptozotocin (STZ) induced diabetic rats were made by injecting STZ (40 mg/kg/bw) intravenously. Following verification of blood glucose levels after 72 hours, diabetic rats showing fasting blood glucose levels above 200 mg/dl were divided into two groups. The diphenylethylene was administered to one group in a dose of 20 mg/kg/bw in propyleneglycol. The control group received only propyleneglycol. Soon after the administration of the compound, glucose tolerance testing was conducted by a glucose load of 2 g/kg/bw and blood glucose levels were monitored at zero, 30, 60, 120 and 180 minutes by milking the tail of the rats.
The same test was conducted on STZ induced diabetic rats comparing the diphenylethylene with the commercial product metformin. The diphenylethylene was administered at a dose of 20 mg/kg and metformin was administered at the dosage of 30 mg/kg.

[4] = test system: Streptozotocin (STZ) induced diabetic rats; test: Glucose tolerance test in STZ induced diabetic rats; format: in vivo; settings: 20 mg/kg/bw in propyleneglycol, glucose load 2 g/kg/bw, monitored 0-180 minutes, FIG. 1
Experimental: as §1

[5] = cited from earlier work

CN(C)C(=N)N=C(N)N [Metformin, metformin, reference compound]
% CHANGE of blood glucose [1]: −48% | blood glucose AFTER [1]: 188 ± 36 | blood glucose BEFORE [1]: 358 ± 24

COc1cc(/C=C/c2ccc(O)cc2)cc(OC)c1 [diphenylethylene, 1-(3,5-dimethoxyphenyl)-2-(4-hydroxyphenyl)ethylene]
% CHANGE of blood glucose [1]: −42% | blood glucose AFTER [1]: 219 ± 48 | blood glucose BEFORE [1]: 377 ± 37 | reduction of blood glucose level [2]: over 50% | glucose levels compared with the commercial product (metformin) [3]: equivalent to those obtained by the commercial product | blood glucose levels versus control group after glucose load [4]: stayed consistently below the blood glucose levels in the control group

COc1cc(/C=C/c2ccc(O)cc2)cc(OC)c1 [pterostilbene, 3,5-dimethoxy-4′-hydroxy-trans-stilbene]
water solubility [5]: water insoluble
